Experimental findings from US10624278B2, “Cultivation method for the rapid propagation of Davidia involucrata winter buds” (Mianyang Teachers' College, priority 2017, dated 2020) are described below.

Type in all cases: in vivo
Data set [1] concerns Davidia involucrata saplings. Description: cultivating the strong seedlings. On the set-up: unit not given here. The settings on record: for K1: mean average height at level 1 of the factor (GA3 0.5, NAA 0.5, 6-BA 0.2); for K2: mean average height at level 2 of the factor (GA3 1.0, NAA 1.0, 6-BA 0.6); for K3: mean average height at level 3 of the factor (GA3 1.5, NAA 1.5, 6-BA 1.0); for R: range of K values of the factor, average height. On the procedure:
inoculating the plurality of Davidia involucrata saplings obtained in step (4) in nine groups of WPM medium (See Table 8) containing different concentrations of NAA, 6-BA and GA3 at the temperature of 24±1° C. and illuminating for 10 hours per day at 2000 1× to cultivate the plurality of Davidia involucrata saplings obtained in step (4) for 36 days. The amount of AC added for each group of WPM medium is 1.0 g/L. Calculating the average height of the saplings (See Table 9).

In data set [2] the test system is Davidia involucrata saplings. The data set can be described thus: rooting cultivation (orthogonal experiment). Further details: unit not given here. The settings on record: for K1: mean rooting ratio at level 1 of the factor (¼MS, IBA 1.0, 6-BA 0, AC 0.5); for K2: mean rooting ratio at level 2 of the factor (WPM, IBA 2.0, 6-BA 1.0, AC 1.0); for K3: mean rooting ratio at level 3 of the factor (White, IBA 3.0, 6-BA 1.5, AC 1.5); for R: range of K values of the factor, rooting ratio. On the procedure:
inoculating the plurality of Davidia involucrata saplings in good condition obtained in step (5) in the White, WPM and 1/4 MS medium (See Table 10) containing different concentrations of IBA, 6-BA and AC at the temperature of 24±1° C. and illuminating for 10 hours per day at 2000 1× to cultivate the plurality of Davidia involucrata saplings in good condition obtained in step (5) until rooting. Analyzing the rooting results (See Table 11).

Data set [3] has as its system Davidia involucrata winter buds. Description: disinfecting and sterilizing of the winter buds. The procedure:
disinfecting and sterilizing of the winter buds: immersing the plurality of winter buds collected in the field into a detergent solution with a concentration of […] for 2 minutes, gently cleaning the bud scales using a soft brush, rinsing for 2 hours with running water, and then immersing the winter buds using the 0.1% mercuric chloride solution for 20 minutes on a clean bench, rinsing with sterile water for more than 5 times, blotting up the water on the surface of the explants with sterile filter paper, stripping up all the scales of the winter buds using a tweezer to obtain the buds, treating with 75% ethanol and mercuric chloride solution or treating with mercuric chloride solution only. Wherein each treatment is inoculated into 30 bottles and 2 explants in each bottle. The specific progress is as follows: […]

[4] abbreviates: Disposal 1: mercuric chloride only, treating time 4 min.
Where [5] appears, read: Disposal 2: mercuric chloride only, treating time 5 min.
Setting [6] is: Disposal 3: mercuric chloride only, treating time 6 min.
Setting [7] is: Disposal 4: mercuric chloride only, treating time 7 min.
Setting [8] is: Disposal 5: mercuric chloride only, treating time 8 min.

Take `C=C1C[C@]23C[C@@]1(O)CC[C@H]2[C@@]12C=C[C@H](O)[C@@](C)(C(=O)O1)[C@H]2[C@@H]3C(=O)O` [GA3]: in data set [1], the K1 stood at 1.663, the K2 was determined as 2.037, the K3 amounted to 1.713 and the R is reported as 0.374.
Regarding `c1ccc(CNc2ncnc3[nH]cnc23)cc1` [6-BA], in data set [2], the K1 was 48.340, the K2 was determined as 67.907, the K3 stood at 57.150 and the R was 19.567. In data set [1], this compound had a K1 of 1.820, a K2 of 1.697, a K3 of 1.897 and an R of 0.200.
On to `[Cl][Hg][Cl]` [0.01% mercuric chloride solution, mercuric chloride], for which the “Death rate (%)” value in data set [3] (setting [4]) amounted to 3%; in data set [3] (setting [5]) it was 5%; in data set [3] (setting [6]) it was 6%; in data set [3] (setting [7]), 36%; in data set [3] (setting [8]), 45%. Further, the “Pollution rate (%)” value in data set [3] (setting [4]) was found to be 38%; in data set [3] (setting [5]), 27.2%; in data set [3] (setting [6]), 18%; in data set [3] (setting [7]) it was 16%; in data set [3] (setting [8]), 10%.
In data set [1], `O=C(O)Cc1cccc2ccccc12` [NAA] had a K1 of 1.537, a K2 of 2.067, a K3 of 1.810 and an R of 0.530.
For the compound `O=C(O)CCCc1c[nH]c2ccccc12` [IBA], in data set [2], the K1 was found to be 55.663, the K2 is recorded as 62.337, the K3 is listed as 55.397 and the R came out at 6.940.
